Tests used:
Mus musculus [1] = species: Mus musculus; assay: Concentration at which compound induced concentration-dependent stimulation of the MLR responses in murine spleen cells; range = 80 ng/mL to 2 ug/mL; type: functional, cell-based
Mus musculus [2] = species: Mus musculus; assay: Concentration at which compound suppressed the MLR response (mixed leukocyte reaction) in murine spleen cells; range = 80 ng/mL to 2 ug/mL; type: functional, cell-based

Q: For CCCCCCCCCCCCC/C=C/[C@@H](O)[C@H](CO[C@@H]1O[C@@H](CO)[C@H](O)[C@H](O)[C@@H]1O)NC(C)=O, which Concentration (Mus musculus [1]) is on record?
A: 2 µg/mL

Q: With CCCCCCCCCCCCC/C=C/[C@@H](O)[C@H](CO)NC(C)=O as the molecule, how does the Concentration (Mus musculus [2]) read?
A: 2 µg/mL
